Where two headings read alike, the source gives them in different places.
What was measured:
[1] = system: production of IL-1β, IL-6, and TNF-α by PBMC activated with LPS; assay: Lipopolysaccharide-activated PBMC cytokine production assay; format: cell-based; details: Homo sapiens, read-out: IC50 in PBMC cytokine production assay
Protocol: Lipopolysaccharide-Activated Pbmc Cytokine Production Assay
Test compounds were evaluated in vitro for the ability to inhibit the production of IL-1β, IL-6, and TNF-α by PBMC activated with bacterial lipopolysaccharide (LPS). Fresh leukocytes were obtained from a local blood bank, and peripheral blood mononuclear cells (PBMCs) were isolated by density gradient centrifugation on Ficol-Paque Plus (Pharmacia).
Preparation of Test Compound Stock Solutions
All reagents were prepared in RPMI 1640+10% v/v human AB serum+1× Pens/Strep/Glu (assay medium). Test compounds were dissolved in 100% DMSO and serially diluted in 96-well polypropylene round bottom micro titer plates (drug plate). Serial dilutions were then diluted 1:250 into assay medium to a 4× working concentration. Compound serial dilutions were half-log, 10 point titrations with a final starting concentration of 1 μM.
Treatment of Cells with Test Compounds and Activation with Lipopolysaccharide
LPS was prepared to a 4× concentration in assay medium. 100 μl of PBMC (1×10^6 cells/ml) were plated in a 96-well polystyrene flat bottom micro titer tissue culture plate and incubated with 50 μl of 4× compound serial dilution for 1 hour at 37° C., 5% CO2 in a tissue culture incubator. 50 μl 4×LPS or control was added and the plates were incubated at 37° C., 5% CO2 in a tissue culture incubator for 18 hours. The final DMSO concentration was 0.1%. The total volume was 200 μL. The final LPS concentration was 100 ng/mL. After 18 hours culture supernatants were removed and IL-1β, IL-6, and TNF-α presence in the supernatants was quantified using MSD ECL based technology.
20 μL of culture supernatant were added to MSD plates, and incubated for one hour at room temperature. 20 μL of detection antibody diluted in antibody diluent (1 μg/mL), and 110 μL of 2× Read Buffer P was added, and incubated for one hour at RT. Electrochemiluminescence was measured using the SECTOR HTS Imager (MSD, Gaithersburg, Md.).
Compound IC50 values were calculated as follows: The proportion of cytokine production in the presence of compound compared to the cytokine production in the presence of the DMSO vehicle alone (Hi control) was calculated using the formula: Percent Control (POC)=(compound−average Lo)/(average Hi−average Lo)*100.

[2] = system: TNF-α production by LPS-activated THP1 cells; assay: Lipopolysaccharide-activated THP1 cell TNF production assay; format: cell-based; details: Homo sapiens, read-out: IC50 in THP-1 cellular TNF production assay
Protocol: Lipopolysaccharide-Activated THP1 Cell TNF Production Assay
THP1 cells were resuspended in fresh THP1 media (RPMI 1640, 10% heat-inactivated FBS, 1×PGS, 1×NEAA, plus 30 μM βME) at a concentration of 1.5×10^6 cells per mL. One hundred microliters of cells per well were plated in a polystyrene 96-well tissue culture plate. 1.5 micrograms per mL of bacterial LPS was prepared in THP1 media and transferred to the first 11 columns of a 96-well polypropylene plate. Column 12 contained only THP1 media for the LO control. Compounds were dissolved in 100% DMSO and serially diluted 3 fold in a polypropylene 96-well microtiter plate (drug plate). Columns 6 and 12 were reserved as controls (HI controls and LO controls respectively) and contained only DMSO. 10 μL of LPS followed by one microliter of inhibitor compound from the drug plate was transferred to the cell plate. The treated cells were induced to synthesize and secrete TNF-α in a 37° C. humidified incubator with 5% CO2 for 3 hours. Fifty microliters of conditioned media was transferred to a 96-well MULTI-ARRAY™ 96-well small spot plate—custom coated with MAB610 containing 100 μL of 2× Read Buffer P supplemented with 0.34 nM AF210NA polyclonal Ab labeled with ruthenium (MSD—Sulfo-TAG™—NHS ester). After an overnight incubation at room temperature with shaking, the reaction was read on the Sector Imager™ 6000. […] The amount of secreted TNF-α in the presence of test compounds compared with that in the presence of DMSO vehicle alone (HI control) was calculated using the formula: % control (POC)=(cpd−average LO)/(average HI−averageLO)*100. Data (consisting of POC and inhibitor concentration in μM) was fitted to a 4-parameter equation (y=A+((B−A)/(1+((x/C)^D))), where A is the minimum y (POC) value, B is the maximum y (POC), C is the x (cpd concentration) at the point of inflection and D is the slope factor) using a Levenburg-Marquardt non-linear regression algorithm.

[3] = target: recombinant human p38α (Homo sapiens, UniProt Q16539); assay: Purified and activated recombinant human p38α HTRF assay; format: biochemical; details: 1 nM p38α, 50 μM ATP, GST-ATF2 substrate, read-out: p38a IC50
Sequence of recombinant human p38α (Q16539 whole entry): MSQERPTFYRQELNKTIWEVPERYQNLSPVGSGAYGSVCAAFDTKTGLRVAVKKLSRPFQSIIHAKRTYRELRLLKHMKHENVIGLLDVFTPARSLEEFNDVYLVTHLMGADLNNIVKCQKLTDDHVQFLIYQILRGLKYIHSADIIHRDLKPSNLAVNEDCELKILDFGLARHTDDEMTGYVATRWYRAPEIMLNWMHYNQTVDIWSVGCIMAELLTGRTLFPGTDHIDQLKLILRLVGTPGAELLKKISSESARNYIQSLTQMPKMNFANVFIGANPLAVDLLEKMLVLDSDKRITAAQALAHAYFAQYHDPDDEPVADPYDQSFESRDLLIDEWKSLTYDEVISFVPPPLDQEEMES
Protocol: Purified and Activated Recombinant Human p38α Assay Kinase Reaction Buffer: […] HTRF Detection Buffer: […] Serial Dilution of Compounds: […] Columns 6 and 12 (HI controls and LO controls respectively) in the drug plate were reserved as controls and contained only DMSO. Kinase Reaction: […] See table below for actual concentrations. In the absence of substrate, the background was measured as LO control. […] Assay Reagent Concentrations: […] HTRF Detection: […] After 60 minutes incubation at room temperature, the assay plate was read in a Discovery Plate Reader. The wells were excited with coherent 320 nm light and the ratio of delayed ([…] post excitation) emissions at […] (native europium fluorescence) and 665 nm (europium fluorescence transferred to allophycocyanin-an index of substrate phosphorylation) was determined (Park et al, 1999). Data Analysis: […] Data (consisting of POC and inhibitor concentration in μM) was fitted to a 4-parameter equation ([…]))), where A is the minimum y (POC) value, B is the maximum y (POC), C is the x (compound concentration) at the point of inflection and D is the slope factor, using a Levenburg-Marquardt non-linear regression algorithm. The inhibition constant (Ki) of the inhibitor was estimated from the IC50 (compound concentration at the point of inflection C) using the Cheng-Prussof equation: […] All results were expressed as the mean±the standard error of the mean. Data acquisition and non-linear regression algorithms were performed using Activity Base v5.2 and XL-fit software v4.1 respectively. All data was archived using Activity Base v5.2 software.

[4] = THP-1, THP1 cells, LPS, 3 hours

Structure (SMILES)	IC50 [3] [nM]	IC50 [2, 4] [nM]	IC50 ([1]; 18 h) [nM]	IC50 ([2]; THP-1, 3 h) [nM]	IC50 ([1]; LPS 100 ng/mL, 18 hours) [nM]
Cc1ccc(C(N)=O)cc1-c1cc2cnnc(-c3ccc(F)cc3F)c2n(C)c1=O [Example 2, 3-(8-(2,4-difluorophenyl)-1-methyl-2-oxo-1,2-dihydropyrido[3,2-d]pyridazin-3-yl)-4-methylbenzamide]	3		≤ 1000	≤ 1000	
Cn1c(=O)c(-c2cc(C(=O)NC3CC3)ccc2Cl)cc2cnnc(-c3ccc(F)cc3F)c21 [Example 5, 4-chloro-N-cyclopropyl-3-(8-(2,4-difluorophenyl)-1-methyl-2-oxo-1,2-dihydropyrido[3,2-d]pyridazin-3-yl)benzamide]	1.6		≤ 1000	≤ 1000	
Cc1ccc(C(=O)NC2CC2)cc1-c1cc2cnnc(-c3ccccc3C)c2n(C)c1=O [Example 6, N-cyclopropyl-4-methyl-3-(1-methyl-2-oxo-8-o-tolyl-1,2-dihydropyrido[3,2-d]pyridazin-3-yl)benzamide]	11.4		≤ 1000	≤ 1000	
Cc1ccccc1-c1nncc2cc(-c3cc(C(=O)NC4CC4)cc(F)c3C)c(=O)n(C)c12 [Example 7, N-cyclopropyl-3-fluoro-4-methyl-5-(1-methyl-2-oxo-8-o-tolyl-1,2-dihydropyrido[3,2-d]pyridazin-3-yl)benzamide]	1.5		≤ 1000	≤ 1000	
Cc1ccc(C(=O)NC2CC2)cc1-c1cc2cnnc(-c3ccccc3Cl)c2n(C)c1=O [Example 8, 3-(8-(2-chlorophenyl)-1-methyl-2-oxo-1,2-dihydropyrido[3,2-d]pyridazin-3-yl)-N-cyclopropyl-4-methylbenzamide]	1.6		≤ 1000	≤ 1000	
Cc1ccc(C(=O)NC2CC2)cc1-c1cc2cnnc(-c3ccccc3C(F)(F)F)c2n(C)c1=O [Example 10, N-cyclopropyl-4-methyl-3-(1-methyl-2-oxo-8-(2-(trifluoromethyl)phenyl)-1,2-dihydropyrido[3,2-d]pyridazin-3-yl)benzamide]	2.9	≤ 1000			≤ 1000
Cc1cc(F)ccc1-c1nncc2cc(-c3cc(C(=O)NC4CC4)cc(F)c3C)c(=O)n(C)c12 [Example 16, N-cyclopropyl-3-fluoro-5-(8-(4-fluoro-2-methylphenyl)-1-methyl-2-oxo-1,2-dihydropyrido[2,3-d]pyridazin-3-yl)-4-methylbenzamide]	3	≤ 1000			≤ 1000
Cc1c(F)cc(C(=O)NC2CC2)cc1-c1cc2cnnc(-c3ccc(F)cc3Cl)c2n(C)c1=O [Example 17, 3-(8-(2-chloro-4-fluorophenyl)-1-methyl-2-oxo-1,2-dihydropyrido[2,3-d]pyridazin-3-yl)-N-cyclopropyl-5-fluoro-4-methylbenzamide]	1.8	≤ 1000			≤ 1000
Cc1ccc(C(=O)Nc2ccon2)cc1-c1cc2cnnc(-c3ccc(F)cc3Cl)c2n(C)c1=O [Example 21, 3-(8-(2-chloro-4-fluorophenyl)-1-methyl-2-oxo-1,2-dihydropyrido[2,3-d]pyridazin-3-yl)-N-3-isoxazolyl-4-methylbenzamide]	0.8	≤ 1000			≤ 1000
CCn1c(=O)c(-c2cc(C(=O)NC3CC3)cc(F)c2C)cc2cnnc(-c3ccc(F)cc3F)c21 [Example 22, N-cyclopropyl-3-(8-(2,4-difluorophenyl)-1-ethyl-2-oxo-1,2-dihydropyrido[2,3-d]pyridazin-3-yl)-5-fluoro-4-methylbenzamide]	1.3	≤ 1000			≤ 1000
CCn1c(=O)c(-c2cc(C(=O)NC3CC3)ccc2C)cc2cnnc(-c3ccc(F)cc3F)c21 [Example 23, N-cyclopropyl-3-(8-(2,4-difluorophenyl)-1-ethyl-2-oxo-1,2-dihydropyrido[2,3-d]pyridazin-3-yl)-4-methylbenzamide]	1.5	≤ 1000			≤ 1000

Further lines, with some results ahead:

IC50 [3] [nM]	IC50 [2, 4] [nM]	Structure (SMILES)	IC50 ([1]; 18 h) [nM]	IC50 ([2]; THP-1, 3 h) [nM]	IC50 ([1]; LPS 100 ng/mL, 18 hours) [nM]
2	≤ 1000	Cc1ccc(C(=O)NC2CC2)cc1-c1cc2cnnc(-c3ccc(C(F)(F)F)cc3F)c2n(C)c1=O [Example 9, N-cyclopropyl-3-(8-(2-fluoro-4-(trifluoromethyl)phenyl)-1-methyl-2-oxo-1,2-dihydropyrido[3,2-d]pyridazin-3-yl)-4-methylbenzamide]			≤ 1000
2.4	≤ 1000	Cc1c(F)cc(C(=O)NC2CC2)cc1-c1cc2cnnc(-c3ccccc3C(F)(F)F)c2n(C)c1=O [Example 11, N-cyclopropyl-3-fluoro-4-methyl-5-(1-methyl-2-oxo-8-(2-(trifluoromethyl)phenyl)-1,2-dihydropyrido[3,2-d]pyridazin-3-yl)benzamide]			≤ 1000
2.5	≤ 1000	Cc1ccc(C(=O)NC2CC2)cc1-c1cc2cnnc(-c3ccc(F)cc3C)c2n(C)c1=O [Example 12, N-cyclopropyl-3-(8-(4-fluoro-2-methylphenyl)-1-methyl-2-oxo-1,2-dihydropyrido[3,2-d]pyridazin-3-yl)-4-methylbenzamide]			≤ 1000
2.8	≤ 1000	Cc1ccc(C(=O)NC2CC2)cc1-c1cc2cnnc(-c3ccc(F)cc3Cl)c2n(C)c1=O [Example 13, N-cyclopropyl-3-(8-(2-chloro-4-fluorophenyl)-1-methyl-2-oxo-1,2-dihydropyrido[3,2-d]pyridazin-3-yl)-4-methylbenzamide]			≤ 1000
1.6	≤ 1000	Cc1c(F)cc(C(=O)NC2CC2)cc1-c1cc2cnnc(-c3cc(F)ccc3Cl)c2n(C)c1=O [Example 19, 3-(8-(2-chloro-5-fluorophenyl)-1-methyl-2-oxo-1,2-dihydropyrido[2,3-d]pyridazin-3-yl)-N-cyclopropyl-5-fluoro-4-methylbenzamide]			≤ 1000

From patent US8455495B2, “Pyridazino-pyridinone compounds and methods of use” (Amgen Inc., priority 2008, dated 2013)
